Tests used:
Format in all cases: cell-based
Human 5-HT2C Receptor [1] = target: T1, Human 5-HT2C Receptor (Homo sapiens, UniProt P28335); assay: Serotonin receptor inositol phosphate 1 (IP1) assay (Multispan); details: 5-HT 2c receptor; reference 1 μM serotonin; FIG. 2
T1 construct: host or cells: CHO-K1
T1 sequence (P28335 33-458): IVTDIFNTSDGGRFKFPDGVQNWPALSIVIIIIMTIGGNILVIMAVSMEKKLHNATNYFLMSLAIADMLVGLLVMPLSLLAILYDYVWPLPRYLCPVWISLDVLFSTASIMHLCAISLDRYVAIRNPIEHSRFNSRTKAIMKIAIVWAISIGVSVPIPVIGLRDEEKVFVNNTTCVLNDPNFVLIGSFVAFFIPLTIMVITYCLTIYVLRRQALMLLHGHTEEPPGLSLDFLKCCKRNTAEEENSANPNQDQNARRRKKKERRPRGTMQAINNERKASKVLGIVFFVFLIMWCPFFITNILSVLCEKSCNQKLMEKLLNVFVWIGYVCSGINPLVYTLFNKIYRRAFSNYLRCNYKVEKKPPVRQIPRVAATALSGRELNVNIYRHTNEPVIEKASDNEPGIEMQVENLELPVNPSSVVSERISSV
Method: (§1) Compounds 018 and 019 were assayed using a serotonin (2a, 2b and 2c receptors) inositol phosphate 1 (IP1) assay, provided by Multispan. The reference used was 1 μM serotonin to calculate the percentage relative response. The results can be seen in FIG. 2. Both compounds appear to some activity against all three target receptors in this assay.
(§2) IP-One Gq kit—cisbio—cat. No. 62IPAPEB
(§3) MULTISCREEN™ CHO-K1 Cell Line Stably Expressing Human 5-HT2C Receptor, Catalog DC1326-1

Human 5-HT2B Receptor = target: T2, Human 5-HT2B Receptor (Homo sapiens, UniProt P41595); assay: as above; details: 5-HT 2b receptor; reference 1 μM serotonin; FIG. 2
T2 construct: host or cells: CHO-K1
Method: as §1, §2
MULTISCREEN™ CHO-K1 Cell Line Stably Expressing Human 5-HT2B Receptor, Catalog DC1325-1

Human 5-HT2A Receptor [2] = target: T3, Human 5-HT2A Receptor (Homo sapiens, UniProt P28223); assay: Serotonin receptor calcium (Ca2+) assay (Multispan, FLIPR); details: 5-HT 2a receptor; reference 10 μM serotonin; FIG. 3
T3 construct: host or cells: CHO-K1
Method: (§4) Compounds 018 and 019 were assayed using a serotonin (2a, 2b and 2c receptors) calcium (Ca^2+) assay, provided by Multispan. The reference used was 10 μM serotonin to calculate the percentage relative response in relative light units (RLU). The results can be seen in FIG. 3. Both compounds have some activity against the 2a and 2c receptors.
(§5) FLIPR calcium 6 assay explorer kit—VWR—cat. No. MLDVR8190
(§6) MULTISCREEN™ CHO-K1 Cell Line Stably Expressing Human 5-HT2A Receptor, Catalog DC1324-1

HTR1B = target: T4, HTR1B (Homo sapiens, UniProt P28222); assay: Serotonin receptor B-arrestin assay (DiscoverX PathHunter); details: 5-HT 1b receptor; reference 10 μM serotonin; FIG. 4
T4 construct: host or cells: U2OS
Method: (§7) Compounds 018 and 019 were assayed using a serotonin (1a, 1b, 2a and 2c receptors) B-arrestin assay, provided by DiscoverX. The reference used was 10 μM serotonin to calculate the percentage relative response. The results can be seen in FIG. 4.
(§8) For the B-arrestin assays the cells came with the kits apart from the 2b receptor assay (Valiscreen serotonin 5HT-26 (human) cell line—ES-314-C, Perkin Elmer).

HTR2A = target: T5, HTR2A (Homo sapiens, UniProt P28223); assay: as above; details: 5-HT 2a receptor; reference 10 μM serotonin; FIG. 4
T5 construct: host or cells: U2OS
Method: as §7, §8

HTR2C = target: T6, HTR2C (Homo sapiens, UniProt P28335); assay: as above; details: 5-HT 2c receptor; reference 10 μM serotonin; FIG. 4
T6 construct: host or cells: U2OS
T6 sequence (P28335 33-458): T1 sequence (P28335 33-458)
Method: as §7, §8

HTR1A = target: T7, HTR1A (Homo sapiens, UniProt P08908); assay: as above; details: 5-HT 1a receptor; reference 10 μM serotonin; FIG. 4
T7 construct: host or cells: CHO-K1
T7 sequence (P08908 1-422): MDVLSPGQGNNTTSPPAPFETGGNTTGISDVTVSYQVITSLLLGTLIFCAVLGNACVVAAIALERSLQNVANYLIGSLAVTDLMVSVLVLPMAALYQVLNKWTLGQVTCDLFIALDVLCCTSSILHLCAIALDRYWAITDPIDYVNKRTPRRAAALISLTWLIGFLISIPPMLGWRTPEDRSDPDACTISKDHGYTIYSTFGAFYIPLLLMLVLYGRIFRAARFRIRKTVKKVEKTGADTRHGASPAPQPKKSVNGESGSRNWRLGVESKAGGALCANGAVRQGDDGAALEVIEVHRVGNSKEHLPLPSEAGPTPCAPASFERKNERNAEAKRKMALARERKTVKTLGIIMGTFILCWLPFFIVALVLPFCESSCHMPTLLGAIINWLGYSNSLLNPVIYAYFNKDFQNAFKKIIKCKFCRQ
Method: as §7, §8

Human 5-HT2C Receptor [3] = target: T1, Human 5-HT2C Receptor; assay: Serotonin receptor calcium (Ca2+) assay (Multispan, FLIPR); details: 5-HT 2c receptor; reference 10 μM serotonin; FIG. 3
Method: as §4, §5, §3

Human 5-HT2A Receptor [4] = target: T3, Human 5-HT2A Receptor; assay: Serotonin receptor inositol phosphate 1 (IP1) assay (Multispan); details: 5-HT 2a receptor; reference 1 μM serotonin; FIG. 2
Method: as §1, §2, §6

Human 5-HT2C Receptor [5] = target: T1, Human 5-HT2C Receptor; assay: Serotonin receptor cAMP assay (Multispan, HTRF); details: 5-HT 2c receptor; reference 10 μM forskolin, serotonin control; FIG. 1
Method: (§9) Compounds 018 (above, left) and 019 (above, right) were assayed using a serotonin (1a, 1b, 2a, 2c and 7 receptors) cAMP assay, provided by Multispan. The reference used was 10 μM forskolin (a cAMP activator) to calculate the percentage relative response, serotonin was used as the control. The results can be seen in FIG. 1. Compound 019 was active against in all other receptor assays.
(§10) cAMP Gs dynamic kit—cisbio—cat. No. 62AM4PEC
as §3

Human 5-HT1B Receptor = target: T8, Human 5-HT1B Receptor (Homo sapiens, UniProt P28222); assay: Serotonin receptor cAMP assay (Multispan, HTRF); details: 5-HT 1b receptor; reference 10 μM forskolin, serotonin control; FIG. 1
T8 construct: host or cells: HEK293T
Method: as §9, §10
MULTISCREEN™ HEK293T Cell Line Stably Expressing Human 5-HT1B Receptor, Catalog DC1320a
MULTISCREEN™ HEK293T Cell Line Stably Expressing Human 5HT1B Receptor, Catalog DC1320a

Human 5-HT2A Receptor [6] = target: T3, Human 5-HT2A Receptor; assay: Serotonin receptor cAMP assay (Multispan, HTRF); details: 5-HT 2a receptor; reference 10 μM forskolin, serotonin control; FIG. 1
Method: as §9, §10, §6

Human 5-HT7 Receptor = target: T9, Human 5-HT7 Receptor (Homo sapiens, UniProt P34969); assay: Serotonin receptor cAMP assay (Multispan, HTRF); details: 5-HT 7 receptor; reference 10 μM forskolin, serotonin control; FIG. 1
T9 construct: host or cells: HEK293T
Method: as §9, §10
MULTISCREEN™ HEK293T Cell Line Stably Expressing Human 5-HT7 Receptor, Catalog DC1334

Human 5-HT1A Receptor = target: T10, Human 5-HT1A Receptor (Homo sapiens, UniProt P08908); assay: Serotonin receptor cAMP assay (Multispan, HTRF); details: 5-HT 1a receptor; reference 10 μM forskolin, serotonin control; FIG. 1
T10 construct: host or cells: HEK293T
T10 sequence (P08908 1-422): T7 sequence (P08908 1-422)
Method: as §9, §10
MULTISCREEN™ HEK293T Cell Line Stably Expressing Human 5-HT1A Receptor, Catalog DC1319a

T3 sequence (P28223 whole entry): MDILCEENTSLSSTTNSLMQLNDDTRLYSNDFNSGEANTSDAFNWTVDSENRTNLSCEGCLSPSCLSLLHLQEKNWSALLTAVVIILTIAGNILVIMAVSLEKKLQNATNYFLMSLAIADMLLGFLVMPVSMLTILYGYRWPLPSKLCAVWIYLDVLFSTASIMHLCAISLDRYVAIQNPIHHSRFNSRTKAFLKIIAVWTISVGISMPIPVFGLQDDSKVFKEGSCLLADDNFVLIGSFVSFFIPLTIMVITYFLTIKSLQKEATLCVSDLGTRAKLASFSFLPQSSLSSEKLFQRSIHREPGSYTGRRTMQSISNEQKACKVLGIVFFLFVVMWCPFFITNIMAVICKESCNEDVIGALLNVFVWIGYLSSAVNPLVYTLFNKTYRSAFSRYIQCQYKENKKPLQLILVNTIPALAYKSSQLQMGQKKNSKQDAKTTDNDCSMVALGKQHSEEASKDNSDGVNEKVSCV
T4 sequence (P28222 whole entry): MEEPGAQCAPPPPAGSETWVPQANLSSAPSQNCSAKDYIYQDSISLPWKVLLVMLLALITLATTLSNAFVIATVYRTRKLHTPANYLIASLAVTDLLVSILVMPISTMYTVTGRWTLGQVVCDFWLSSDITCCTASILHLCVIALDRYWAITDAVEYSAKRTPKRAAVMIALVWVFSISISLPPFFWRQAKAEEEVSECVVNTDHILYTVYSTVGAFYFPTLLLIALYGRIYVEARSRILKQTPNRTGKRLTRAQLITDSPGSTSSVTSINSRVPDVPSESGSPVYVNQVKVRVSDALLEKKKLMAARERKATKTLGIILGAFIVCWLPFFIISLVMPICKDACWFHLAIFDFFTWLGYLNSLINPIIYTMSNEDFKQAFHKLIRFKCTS
T5 sequence (P28223 whole entry): as the sequence (P28223 whole entry) above
T2 sequence (P41595 whole entry): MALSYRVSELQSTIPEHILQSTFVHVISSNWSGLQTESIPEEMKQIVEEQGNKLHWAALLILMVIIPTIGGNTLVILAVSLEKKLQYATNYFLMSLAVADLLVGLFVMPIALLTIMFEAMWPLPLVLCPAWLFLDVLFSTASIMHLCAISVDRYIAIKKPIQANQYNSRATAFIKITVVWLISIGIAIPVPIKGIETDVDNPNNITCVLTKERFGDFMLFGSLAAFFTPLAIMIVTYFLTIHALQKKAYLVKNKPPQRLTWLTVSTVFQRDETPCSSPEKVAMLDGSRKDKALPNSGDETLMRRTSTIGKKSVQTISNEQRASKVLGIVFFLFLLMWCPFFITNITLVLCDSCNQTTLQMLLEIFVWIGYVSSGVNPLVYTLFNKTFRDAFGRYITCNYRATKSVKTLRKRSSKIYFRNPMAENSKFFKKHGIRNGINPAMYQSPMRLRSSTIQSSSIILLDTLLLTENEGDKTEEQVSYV
T8 sequence (P28222 whole entry): as the sequence (P28222 whole entry) above
T9 sequence (P34969 whole entry): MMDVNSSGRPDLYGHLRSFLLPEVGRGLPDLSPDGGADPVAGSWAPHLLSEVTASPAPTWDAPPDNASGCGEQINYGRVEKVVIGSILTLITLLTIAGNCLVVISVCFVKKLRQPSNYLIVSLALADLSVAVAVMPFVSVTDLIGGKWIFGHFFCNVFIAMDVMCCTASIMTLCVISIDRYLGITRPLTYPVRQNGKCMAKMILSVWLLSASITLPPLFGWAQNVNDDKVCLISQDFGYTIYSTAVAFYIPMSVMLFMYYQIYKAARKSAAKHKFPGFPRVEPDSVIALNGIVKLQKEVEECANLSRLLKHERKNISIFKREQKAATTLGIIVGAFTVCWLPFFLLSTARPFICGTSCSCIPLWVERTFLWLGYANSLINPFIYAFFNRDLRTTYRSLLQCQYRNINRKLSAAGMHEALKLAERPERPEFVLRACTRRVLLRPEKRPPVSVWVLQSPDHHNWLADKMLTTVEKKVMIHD

Row | SMILES | IP1 assay activity (Human 5-HT2C Receptor [1]) | IP1 assay activity (Human 5-HT2B Receptor) | Calcium (Ca2+) assay activity (Human 5-HT2A Receptor [2]) | B-arrestin assay activity (HTR1B) | B-arrestin assay activity (HTR2A) | B-arrestin assay activity (HTR2C) | B-arrestin assay activity (HTR1A) | Calcium (Ca2+) assay activity (Human 5-HT2C Receptor [3]) | IP1 assay activity (Human 5-HT2A Receptor [4]) | cAMP assay activity (Human 5-HT2C Receptor [5]) | cAMP assay activity (Human 5-HT1B Receptor) | cAMP assay activity (Human 5-HT2A Receptor [6]) | cAMP assay activity (Human 5-HT7 Receptor) | cAMP assay activity (Human 5-HT1A Receptor)
1 | CCCCCN(C(=O)[C@@H]1C=C2c3cccc4[nH]cc(c34)C[C@H]2N(C)C1)C(C)C [Compound 018, (4R,6R,7R)-6-methyl-4-[pentyl(propan-2-yl)carbamoyl]-6,11-diazatetra-cyclo[7.6.1.0^2,^7.0^12,^16] hexadeca-1(16),2,9,12,14-pentaen-6-ium] | some activity | some activity | some activity | some activity | some activity | some activity | some activity | some activity | some activity | – | – | – | – | –
2 | CC(C)NC(=O)[C@@H]1C=C2c3cccc4[nH]cc(c34)C[C@H]2N(C)C1 [Compound 019, (4R,6R,7R)-6-methyl-4-[(propan-2-yl)carbamoyl]-6,11-diazatetra-cyclo[7.6.1.0^2,^7^7.0^12,^16] hexadeca-1(16),2,9,12,14-pentaen-6-ium] | some activity | some activity | some activity | some activity | some activity | some activity | some activity | some activity | some activity | active | active | stimulates the 5HT2aR leading to downstream activation of cAMP | active | active
